ChEMBL document CHEMBL1287706 (Bioorg Med Chem, 2010)
Counter-ions that a name gives are not always drawn.

Experiments:
[1] = target: Sodium-dependent serotonin transporter (Rattus norvegicus, UniProt P31652); parameters: species or system Sprague-Dawley;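 note: radioligand competition using [3H]citalopram bound to serotonin transporter in Sprague-Dawley rat brain tissue, 1 h incubation, bound radioactivity quantified by liquid scintillation counting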
Description: Displacement of [3H]citalopram from serotonin transporter in Sprague-Dawley rat brain after 1 hr by liquid scintillation counting

[2] = target: Sodium-dependent dopamine transporter (Rattus norvegicus, UniProt P23977); test: biochemical; type: tissue-based, Sprague-Dawley, Brain
Chain of Sodium-dependent dopamine transporter (P23977 whole entry): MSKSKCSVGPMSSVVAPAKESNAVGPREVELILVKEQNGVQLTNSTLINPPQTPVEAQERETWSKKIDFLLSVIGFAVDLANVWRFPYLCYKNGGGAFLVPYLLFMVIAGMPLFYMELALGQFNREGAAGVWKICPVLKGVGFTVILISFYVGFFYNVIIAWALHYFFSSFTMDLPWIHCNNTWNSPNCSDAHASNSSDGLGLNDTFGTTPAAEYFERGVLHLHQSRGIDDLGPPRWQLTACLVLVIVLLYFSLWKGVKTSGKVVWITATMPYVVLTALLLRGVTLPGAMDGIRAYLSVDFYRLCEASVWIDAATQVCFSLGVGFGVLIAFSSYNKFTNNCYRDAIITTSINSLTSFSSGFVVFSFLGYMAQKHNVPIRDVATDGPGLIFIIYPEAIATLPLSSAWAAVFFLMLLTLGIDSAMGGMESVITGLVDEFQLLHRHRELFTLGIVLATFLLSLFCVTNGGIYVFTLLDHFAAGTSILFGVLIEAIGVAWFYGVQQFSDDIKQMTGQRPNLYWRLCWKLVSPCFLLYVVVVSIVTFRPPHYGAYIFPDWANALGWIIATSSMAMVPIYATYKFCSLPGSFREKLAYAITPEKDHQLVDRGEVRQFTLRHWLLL

[3] = target: Transporter (Rattus norvegicus, UniProt Q63380); test: biochemical; type: tissue-based, Sprague-Dawley, Frontal cortex
Chain of Transporter (Q63380 whole entry): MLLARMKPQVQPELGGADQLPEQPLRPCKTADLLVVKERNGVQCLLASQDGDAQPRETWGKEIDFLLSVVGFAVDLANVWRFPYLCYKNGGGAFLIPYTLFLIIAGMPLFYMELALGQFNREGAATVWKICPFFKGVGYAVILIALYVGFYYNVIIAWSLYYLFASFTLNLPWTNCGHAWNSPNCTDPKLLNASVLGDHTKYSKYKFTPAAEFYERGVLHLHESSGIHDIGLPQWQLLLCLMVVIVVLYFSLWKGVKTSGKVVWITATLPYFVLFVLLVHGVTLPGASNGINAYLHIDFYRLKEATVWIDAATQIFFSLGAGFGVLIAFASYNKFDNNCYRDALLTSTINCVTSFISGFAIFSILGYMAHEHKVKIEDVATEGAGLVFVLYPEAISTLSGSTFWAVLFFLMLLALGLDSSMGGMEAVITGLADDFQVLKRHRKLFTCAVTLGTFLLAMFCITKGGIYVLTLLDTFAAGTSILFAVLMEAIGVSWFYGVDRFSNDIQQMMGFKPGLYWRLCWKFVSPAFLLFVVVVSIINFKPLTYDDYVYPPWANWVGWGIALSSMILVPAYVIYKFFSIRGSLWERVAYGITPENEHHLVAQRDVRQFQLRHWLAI
Description: Displacement of [3H]nisoxetine from norepinephrine transporter in Sprague-Dawley rat frontal cortex after 1 hr by liquid scintillation counting

Chain of Sodium-dependent serotonin transporter (P31652 whole entry): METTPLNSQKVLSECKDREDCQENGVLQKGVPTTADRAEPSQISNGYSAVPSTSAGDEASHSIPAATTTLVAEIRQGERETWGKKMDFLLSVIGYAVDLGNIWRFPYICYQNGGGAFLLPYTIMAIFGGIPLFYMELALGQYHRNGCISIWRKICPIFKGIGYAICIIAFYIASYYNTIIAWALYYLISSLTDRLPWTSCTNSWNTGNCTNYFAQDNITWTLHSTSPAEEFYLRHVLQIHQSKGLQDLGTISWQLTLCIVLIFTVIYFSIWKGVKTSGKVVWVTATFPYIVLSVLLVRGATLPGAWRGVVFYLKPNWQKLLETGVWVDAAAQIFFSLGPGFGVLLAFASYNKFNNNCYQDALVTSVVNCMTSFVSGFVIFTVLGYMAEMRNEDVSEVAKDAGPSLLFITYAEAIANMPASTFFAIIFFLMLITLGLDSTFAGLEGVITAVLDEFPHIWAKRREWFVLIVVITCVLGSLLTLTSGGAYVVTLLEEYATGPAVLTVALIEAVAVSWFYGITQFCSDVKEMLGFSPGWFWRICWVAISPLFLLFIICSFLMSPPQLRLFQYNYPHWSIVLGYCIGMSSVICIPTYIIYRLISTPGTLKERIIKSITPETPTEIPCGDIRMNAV

CCOC(=O)C1(c2ccc(I)cc2)CCNCC1
Ki [1]: 2.5 nM
Ki [2]: 3500 nM

CN1CCC(C(=O)OCc2ccccc2)(c2ccc(Cl)c(Cl)c2)CC1
Ki [3]: 901 nM
Ki [1]: 3.9 nM
Ki [2]: 2970 nM

COc1ccc(COC(=O)C2(c3ccc(Cl)c(Cl)c3)CCN(C)CC2)cc1
Ki [3]: 300 nM
Ki [1]: 1.7 nM
Ki [2]: 2790 nM

CN1CCC(C(=O)OCc2ccc([N+](=O)[O-])cc2)(c2ccc(Cl)c(Cl)c2)CC1
Ki [3]: 333 nM
Ki [1]: 1 nM
Ki [2]: 1530 nM

CN1CCC(C(=O)OCc2ccc(Cl)c(Cl)c2)(c2ccc(Cl)c(Cl)c2)CC1
Ki [1]: 4.3 nM
Ki [2]: 5230 nM

CN1CCC(C(=O)OCc2ccc(Br)cc2)(c2ccc(Cl)c(Cl)c2)CC1
Ki [3]: 580 nM
Ki [1]: 7 nM
Ki [2]: 2560 nM

CN1CCC(C(=O)OCc2ccc(I)cc2)(c2ccc(Cl)c(Cl)c2)CC1
Ki [1]: 13.2 nM
Ki [2]: 3470 nM

CN1CCC(C(=O)OCc2ccc(-c3ccccc3)cc2)(c2ccc(Cl)c(Cl)c2)CC1
Ki [1]: 10.9 nM
Ki [2]: 5630 nM

CN1CCC(C(=O)OCc2ccccc2)(c2ccc(-c3ccccc3)cc2)CC1
Ki [1]: 49.5 nM
Ki [2]: 2310 nM

O=C(OCc1ccccc1)C1(c2ccc(Cl)c(Cl)c2)CCNCC1
Ki [1]: 9.2 nM
Ki [2]: 919 nM

COc1ccc(COC(=O)C2(c3ccc(Cl)c(Cl)c3)CCNCC2)cc1
Ki [3]: 3130 nM
Ki [1]: 10.2 nM
Ki [2]: 1260 nM

O=C(OCc1ccc([N+](=O)[O-])cc1)C1(c2ccc(Cl)c(Cl)c2)CCNCC1
Ki [3]: 1440 nM
Ki [1]: 6.4 nM
Ki [2]: 1300 nM

O=C(OCc1ccc(Cl)c(Cl)c1)C1(c2ccc(Cl)c(Cl)c2)CCNCC1
Ki [3]: 11900 nM
Ki [1]: 30.2 nM
Ki [2]: 2890 nM

O=C(OCc1ccc(C(F)(F)F)cc1)C1(c2ccc(Cl)c(Cl)c2)CCNCC1
Ki [3]: 7900 nM
Ki [1]: 46.7 nM
Ki [2]: 2240 nM

O=C(OCc1ccccc1)C1(c2ccc(-c3ccccc3)cc2)CCNCC1
Ki [1]: 2 nM
Ki [2]: 1110 nM

COc1ccc(COC(=O)C2(c3ccc(I)cc3)CCNCC2)cc1
Ki [3]: 2730 nM
Ki [1]: 0.6 nM
Ki [2]: 2920 nM

O=C(OCc1ccc([N+](=O)[O-])cc1)C1(c2ccc(I)cc2)CCNCC1
Ki [3]: 2070 nM
Ki [1]: 5.9 nM
Ki [2]: 1780 nM

O=C(OCc1ccc(Cl)c(Cl)c1)C1(c2ccc(I)cc2)CCNCC1
Ki [3]: 6060 nM
Ki [1]: 5.9 nM
Ki [2]: 4340 nM

COc1ccc(COC(=O)C2(c3ccc4ccccc4c3)CCNCC2)cc1
Ki [3]: 2350 nM
Ki [1]: 2.9 nM
Ki [2]: 889 nM

O=C(OCc1ccc([N+](=O)[O-])cc1)C1(c2ccc3ccccc3c2)CCNCC1
Ki [3]: 937 nM
Ki [1]: 2 nM
Ki [2]: 732 nM

O=C(OCc1ccc(Cl)c(Cl)c1)C1(c2ccc3ccccc3c2)CCNCC1
Ki [3]: 16600 nM
Ki [1]: 26.5 nM
Ki [2]: 3210 nM

CN1CCC(C(=O)OCc2ccc3ccccc3c2)(c2ccc(Cl)c(Cl)c2)CC1
Ki [3]: 2550 nM
Ki [1]: 9.9 nM
Ki [2]: 4910 nM

CCOC(=O)C1(c2ccc(Cl)c(Cl)c2)CCNCC1
Ki [1]: 21.6 nM
Ki [2]: 321 nM

CCOC(=O)C1(c2ccc(-c3ccccc3)cc2)CCNCC1
Ki [1]: 3.3 nM
Ki [2]: 3210 nM

CCOC(=O)C1(c2ccc3ccccc3c2)CCNCC1
Ki [1]: 14.1 nM
Ki [2]: 710 nM

CCOC(=O)C1(c2ccc(I)cc2)CCN(C)CC1
Ki [3]: 519000 nM

CCOC(=O)C1(c2ccc3ccccc3c2)CCN(C)CC1
Ki [3]: 71000 nM

Fc1ccc([C@@H]2CCNC[C@H]2COc2ccc3c(c2)OCO3)cc1 [PAROXETINE HYDROCHLORIDE]
Ki [3]: 59 nM
